Measurements published in patent US10519177B2, “Heterocyclic compounds and uses thereof” (Plexxikon Inc., priority 2013, dated 2019).
Read-outs that look alike come from different tables or passages of the source.

Legend:
BRD4-BD12 (1-477) = BRD4-BD12 (1-477) (Homo sapiens (Human), UniProt O60885); test: Alphascreen binding assay BRD4-BD12; settings: BRD4(1 2) H4; read-out: Biochemical activity (IC50 μM) BRD4(1 2) H4
In short: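 First, compound was preincubated 1 h at room temperature with the His-tagged BRD4 protein (BD1 44-164 or tandem BD12 1-477) and acetylated H4 peptide. Next, donor and acceptor beads were added at 7.5 μg/ml final. After 30 min, AlphaScreen emission was recorded.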

MV-4-11 cells = test: Oncology cell growth assay MV-4-11 (CellTiter Glo); type: cell-based; settings: Homo sapiens, MV4-11, 72 h, read-out: Cell activity (IC50 μM) MV-4-11 3d-Growth
In short: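 MV-4-11 AML cells (MLL-AF4), 3000 per well, exposed to 8-point 1:3 compound titration from 10 μM top concentration (0.2% DMSO) for 72 h. Viability by CellTiter Glo luminescence, normalized to DMSO controls; pIC50 from four-parameter curve fit.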

bromodomain = test: at least one of the bromodomain cell assays of Example 57; type: cell-based; settings: at least one of the bromodomain cell assays described in Example 57; read-out: IC50 in at least one of the bromodomain cell assays

Structure (SMILES) | IC50 (BRD4-BD12 (1-477)) [µM] | IC50 (MV-4-11 cells; MV-4-11, 3d growth) [µM] | IC50 (bromodomain) [µM] | IC50 (MV-4-11 cells) [µM]
Cc1noc(C)c1-c1cnc2c(-c3csc(C(=O)O)c3)cn(CC3(F)CCCCC3)c2c1 [P-0477, 4-[6-(3,5-dimethylisoxazol-4-yl)-1-[(1-fluorocyclohexyl)methyl]pyrrolo[3,2-b]pyridin-3-yl]thiophene-2-carboxylic acid] | < 1 | 1 to 10 | < 10 | 
CCOC(=O)c1ccc(-n2cc(CC3CCC(F)(F)CC3)c3cc(-c4c(C)noc4C)cnc32)c(F)c1 [P-0441, ethyl 4-[3-[(4,4-difluorocyclohexyl)methyl]-5-(3,5-dimethylisoxazol-4-yl)pyrrolo[2,3-b]pyridin-1-yl]-3-fluoro-benzoate] | < 1 | 1 to 10 | < 10 | 
COc1cc(-c2cn(CC3CCCCC3)c3cc(-c4c(C)noc4C)cnc23)ccc1C(=O)O [P-0700, 4-[1-(cyclohexylmethyl)-6-(3,5-dimethylisoxazol-4-yl)pyrrolo[3,2-b]pyridin-3-yl]-2-methoxy-benzoic acid] | < 1 | < 1 | < 10 | 
Cc1noc(C)c1-c1cnc2c(-c3cnn(CC(=O)O)c3)cn(CC3(F)CCC(F)(F)CC3)c2c1 [P-0386, 2-[4-[6-(3,5-dimethylisoxazol-4-yl)-1-[(1,4,4-trifluorocyclohexyl)methyl]pyrrolo[3,2-b]pyridin-3-yl]pyrazol-1-yl]acetic acid] | < 1 |  | < 10 | 10 to 200
[2H]C([2H])(O)c1ccc(-c2cn(CC3CCC(F)(F)CC3)c3cc(-c4c(C)noc4C)cnc23)cc1 [P-0571, dideutrio-[4-[1-[(4,4-difluorocyclohexyl)methyl]-6-(3,5-dimethylisoxazol-4-yl)pyrrolo[3,2-b]pyridin-3-yl]phenyl]methanol] | < 1 | < 1 | < 10 | 
[2H]C([2H])(C1CCC(F)(F)CC1)n1cc(-c2cnco2)c2ncc(-c3c(C)noc3C)cc21 [P-0334, 4-[1-[dideuterio-(4,4-difluorocyclohexyl)methyl]-3-oxazol-5-yl-pyrrolo[3,2-b]pyridin-6-yl]-3,5-dimethyl-isoxazole] | < 1 |  | < 10 | < 1
Cc1noc(C)c1-c1cnc2c(-c3ccc(F)c(C(=O)O)c3)cn(CC3CCC(F)(F)CC3)c2c1 [P-0414, 5-[1-[(4,4-difluorocyclohexyl)methyl]-6-(3,5-dimethylisoxazol-4-yl)pyrrolo[3,2-b]pyridin-3-yl]-2-fluoro-benzoic acid] | < 1 |  | < 10 | < 1
Cc1nnn(C)c1-c1cnc2c(-c3ccc(C(=O)O)cc3)cn(CC3(F)CCC(F)(F)CC3)c2c1 [P-0373, 4-[6-(3,5-dimethyltriazol-4-yl)-1-[(1,4,4-trifluorocyclohexyl)methyl]pyrrolo[3,2-b]pyridin-3-yl]benzoic acid] | < 1 |  | < 10 | < 1
COC(=O)Cc1ccc(-c2cn(CC3CCCCC3)c3cc(-c4c(C)noc4C)cnc23)cc1 [P-0589, methyl 2-[4-[1-(cyclohexylmethyl)-6-(3,5-dimethylisoxazol-4-yl)pyrrolo[3,2-b]pyridin-3-yl]phenyl]acetate] | < 1 | < 1 | < 10 | 
Cc1noc(C)c1-c1cnc2c(-c3ccc(-c4nnn[nH]4)cc3)cn(CC3(F)CCCCC3)c2c1 [P-0460, 4-[1-[(1-fluorocyclohexyl)methyl]-3-[4-(1H-tetrazol-5-yl)phenyl]pyrrolo[3,2-b]pyridin-6-yl]-3,5-dimethyl-isoxazole] | < 1 | < 1 | < 10 | 
Cc1noc(C)c1-c1cnc2c(-c3ccc([N+](=O)[O-])cc3)cn(CC3CCC(F)(F)CC3)c2c1 [P-0598, 4-[1-[(4,4-difluorocyclohexyl)methyl]-3-(4-nitrophenyl)pyrrolo[3,2-b]pyridin-6-yl]-3,5-dimethyl-isoxazole] | < 1 | < 1 | < 10 | 
Cc1ccc(-c2cn(CC3CCC(F)(F)CC3)c3cc(-c4c(C)noc4C)cnc23)cc1 [P-0604, 4-[1-[(4,4-difluorocyclohexyl)methyl]-3-(p-tolyl)pyrrolo[3,2-b]oyridin-6-yl]-3,5-dimethyl-isoxazole] | < 1 | < 1 | < 10 | 
Cc1noc(C)c1-c1cnc2c(-c3ccc(CCC(=O)O)cc3)cn(CC3CCC(F)(F)CC3)c2c1 [P-0530, 3-[4-[1-[(4,4-difluorocyclohexyl)methyl]-6-(3,5-dimethylisoxazol-4-yl)pyrrolo[3,2-b]pyridin-3-yl]phenyl]propanoic acid] | < 1 | < 1 | < 10 | 
Cc1nnn(C)c1-c1cnc2c(-c3cnn(C(F)F)c3)cn(CC3CCC(F)(F)CC3)c2c1 [P-0357, 1-[(4,4-difluorocyclohexyl)methyl]-3-[1-(difluoromethyl)pyrazol-4-yl]-6-(3,5-dimethyltriazol-4-yl)pyrrolo[3,2-b]pyridine] | < 1 |  | < 10 | < 1
Cc1noc(C)c1-c1cnc2c(-c3ccc(CC(=O)O)cc3)cn(CC3(F)CCCCC3)c2c1 [P-0383, 2-[4-[6-(3,5-dimethylisoxazol-4-yl)-1-[(1-fluorocyclohexyl)methyl]pyrrolo[3,2-b]pyridin-3-yl]phenyl]acetic acid] | < 1 |  | < 10 | < 1
Cc1noc(C)c1-c1cnc2c(-c3cnc(N)cn3)cn(CC3(F)CCCCC3)c2c1 [P-0472, 5-[6-(3,5-dimethylisoxazol-4-yl)-1-[(1-fluorocyclohexyl)methyl]pyrrolo[3,2-b]pyridin-3-yl]pyrazin-2-amine] | < 1 | < 1 | < 10 | 
CNC(=O)Nc1ccc(-c2cn(CC3(F)CCCCC3)c3cc(-c4c(C)noc4C)cnc23)cc1 [P-0522, 1-[4-[6-(3,5-dimethylisoxazol-4-yl)-1-[(1-fluorocyclohexyl)methyl]pyrrolo[3,2-b]pyridin-3-yl]phenyl]-3-methyl-urea] | < 1 | < 1 | < 10 | 
Cc1noc(C)c1-c1cnc2c(-c3cccc(S(=O)(=O)NC4CC4)c3)cn(CC3(F)CCCCC3)c2c1 [P-0490, N-cyclopropyl-3-[6-(3,5-dimethylisoxazol-4-yl)-1-[(1-fluorocyclohexyl)methyl]pyrrolo[3,2-b]pyridin-3-yl]benzenesulfonamide] | < 1 | < 1 | < 10 | 
Cc1noc(C)c1-c1cnc2c(-c3ccc(-c4nnn[nH]4)cc3)cn([C@@H](C)c3ccccn3)c2c1 [P-0568, 3,5-dimethyl-4-[1-[(1S)-1-(2-pyridyl)ethyl]-3-[4-(1H-tetrazol-5-yl)phenyl]pyrrolo[3,2-b]pyridin-6-yl]isoxazole] | < 1 | < 1 | < 10 | 
Cc1noc(C)c1-c1cnc2c(-c3ccc(C(=O)O)c(Cl)c3)cn(CC3CCC(F)(F)CC3)c2c1 [P-0535, 2-chloro-4-[1-[(4,4-difluorocyclohexyl)methyl]-6-(3,5-dimethylisoxazol-4-yl)pyrrolo[3,2-b]pyridin-3-yl]benzoic acid] | < 1 | < 1 | < 10 | 
Cc1noc(C)c1-c1cnc2c(-c3cnn(C(F)F)c3)cn(C(C)c3ccccn3)c2c1 (stereo not drawn) [P-0361, 4-[3-[1-(difluoromethyl)pyrazol-4-yl]-1-[1-(2-pyridyl)ethyl]pyrrolo[3,2-b]pyridin-6-yl]-3,5-dimethyl-isoxazole] | < 1 |  | < 10 | < 1
Cc1noc(C)c1-c1cnc2c(-c3cnn(C)c3)cn(C(c3ccccn3)c3ccccn3)c2c1 [P-0593, 4-[1-[bis(2-pyridyl)methyl]-3-(1-methylpyrazol-4-yl)pyrrolo[3,2-b]pyridin-6-yl]-3,5-dimethyl-isoxazole] | < 1 | < 1 | < 10 | 
Cc1noc(C)c1-c1cnc2c(-c3ccc(C(=O)O)cc3)cn(C(C)(C)c3ccccn3)c2c1 [P-0548, 4-[6-(3,5-dimethylisoxazol-4-yl)-1-[1-methyl-1-(2-pyridyl)ethyl]pyrrolo[3,2-b]pyridin-3-yl]benzoic acid] | < 1 | < 1 | < 10 | 
[2H]C([2H])(C1CCC(F)(F)CC1)n1cc(-c2cn(C)nc2C)c2ncc(-c3c(C)noc3C)cc21 [P-0335, 4-[1-[dideuterio-(4,4-difluorocyclohexyl)methyl]-3-(1,3-dimethylpyrazol-4-yl)pyrrolo[3,2-b]pyridin-6-yl]-3,5-dimethyl-isoxazole] | < 1 |  | < 10 | < 1
Cc1noc(C)c1-c1cnc2c(c1)c(CC1CCC(F)(F)CC1)cn2-c1ncc(C(=O)O)cn1 [P-0443, 2-[3-[(4,4-difluorocyclohexyl)methyl]-5-(3,5-dimethylisoxazol-4-yl)pyrrolo[2,3-b]pyridin-1-yl]pyrimidine-5-carboxylic acid] | < 1 | 1 to 10 | < 10 | 
COc1ccc(-c2cn(CC3CCC(F)(F)CC3)c3cc(-c4c(C)noc4C)cnc23)cn1 [P-0390, 4-[1-[(4,4-difluorocyclohexyl)methyl]-3-(6-methoxy-3-pyridyl)pyrrolo[3,2-b]pyridin-6-yl]-3,5-dimethyl-isoxazole] | < 1 |  | < 10 | < 1
